Experimental data taken from the NIST ThermoML archive (doi:10.1021/je060150a).
Numbers after ± are expanded uncertainties.

What was measured:
[1] = refractive index (Na D-line) (dimensionless); details: 101.33 kPa, Liquid, Standard Abbe refractometry
[2] = Liquid; for mass density / viscosity: 101 kPa
[3] = xn = mol fraction of the nth substance listed; details: 101 kPa, Liquid

CCC(C)=O [butanone]
refractive index ([1]; 283.15 K): 1.384 ± 0.00065 | refractive index ([1]; 293.15 K): 1.37888 ± 0.00065 | refractive index ([1]; 303.15 K): 1.37383 ± 0.00065 | refractive index ([1]; 313.15 K): 1.36856 ± 0.00066 | mass density ([2]; 283.15 K): 815.9 ± 0.3 kg/m3 | viscosity ([2]; 283.15 K): 0.472 ± 0.007 mPa·s | mass density ([2]; 293.15 K): 805.5 ± 0.3 kg/m3 | viscosity ([2]; 293.15 K): 0.423 ± 0.006 mPa·s | mass density ([2]; 303.15 K): 795.1 ± 0.3 kg/m3 | viscosity ([2]; 303.15 K): 0.382 ± 0.006 mPa·s | vapor or sublimation pressure ([2]; 303.15 K): 15.74 ± 0.4 kPa | mass density ([2]; 313.15 K): 784.3 ± 0.3 kg/m3 | viscosity ([2]; 313.15 K): 0.347 ± 0.005 mPa·s

CCC(C)=O [butanone] + ClC(Cl)Cl
mass density ([3]; 283.15 K, x2 = 0): 815.9 ± 0.3 kg/m3 | viscosity ([3]; 283.15 K, x2 = 0): 0.472 ± 0.007 mPa·s | mass density ([3]; 293.15 K, x2 = 0): 805.5 ± 0.3 kg/m3 | viscosity ([3]; 293.15 K, x2 = 0): 0.423 ± 0.006 mPa·s | mass density ([3]; 303.15 K, x2 = 0): 795.1 ± 0.3 kg/m3 | viscosity ([3]; 303.15 K, x2 = 0): 0.382 ± 0.006 mPa·s | mass density ([3]; 313.15 K, x2 = 0): 784.3 ± 0.3 kg/m3 | viscosity ([3]; 313.15 K, x2 = 0): 0.347 ± 0.005 mPa·s

ClC(Cl)Cl [trichloromethane]
refractive index ([1]; 283.15 K): 1.45189 ± 0.00072 | refractive index ([1]; 293.15 K): 1.44589 ± 0.00072 | refractive index ([1]; 303.15 K): 1.43987 ± 0.00072 | refractive index ([1]; 313.15 K): 1.43386 ± 0.00072 | mass density ([2]; 283.15 K): 1507.3 ± 0.5 kg/m3 | viscosity ([2]; 283.15 K): 0.629 ± 0.008 mPa·s | mass density ([2]; 293.15 K): 1488.4 ± 0.5 kg/m3 | viscosity ([2]; 293.15 K): 0.573 ± 0.008 mPa·s | mass density ([2]; 303.15 K): 1469.4 ± 0.5 kg/m3 | viscosity ([2]; 303.15 K): 0.516 ± 0.007 mPa·s | vapor or sublimation pressure ([2]; 303.15 K): 32.19 ± 0.65 kPa | mass density ([2]; 313.15 K): 1450 ± 0.5 kg/m3 | viscosity ([2]; 313.15 K): 0.468 ± 0.007 mPa·s

ClC(Cl)Cl [trichloromethane] + CCC(C)=O
mass density ([3]; 283.15 K, x1 = 0.0906): 872.7 ± 0.3 kg/m3 | viscosity ([3]; 283.15 K, x1 = 0.0906): 0.528 ± 0.007 mPa·s | mass density ([3]; 283.15 K, x1 = 0.1806): 930.4 ± 0.3 kg/m3 | viscosity ([3]; 283.15 K, x1 = 0.1806): 0.588 ± 0.008 mPa·s | mass density ([3]; 283.15 K, x1 = 0.272): 990.2 ± 0.3 kg/m3 | viscosity ([3]; 283.15 K, x1 = 0.272): 0.627 ± 0.008 mPa·s | mass density ([3]; 283.15 K, x1 = 0.3661): 1053.3 ± 0.3 kg/m3 | viscosity ([3]; 283.15 K, x1 = 0.3661): 0.66 ± 0.009 mPa·s | mass density ([3]; 283.15 K, x1 = 0.4551): 1113.9 ± 0.3 kg/m3 | viscosity ([3]; 283.15 K, x1 = 0.4551): 0.692 ± 0.009 mPa·s | mass density ([3]; 283.15 K, x1 = 0.549): 1179.5 ± 0.3 kg/m3 | viscosity ([3]; 283.15 K, x1 = 0.549): 0.711 ± 0.009 mPa·s | mass density ([3]; 283.15 K, x1 = 0.633): 1238.9 ± 0.4 kg/m3 | viscosity ([3]; 283.15 K, x1 = 0.633): 0.712 ± 0.009 mPa·s | mass density ([3]; 283.15 K, x1 = 0.7035): 1289.3 ± 0.4 kg/m3 | viscosity ([3]; 283.15 K, x1 = 0.7035): 0.717 ± 0.009 mPa·s | mass density ([3]; 283.15 K, x1 = 0.7973): 1357.5 ± 0.4 kg/m3 | viscosity ([3]; 283.15 K, x1 = 0.7973): 0.701 ± 0.009 mPa·s | mass density ([3]; 283.15 K, x1 = 0.9068): 1437.7 ± 0.5 kg/m3 | viscosity ([3]; 283.15 K, x1 = 0.9068): 0.674 ± 0.009 mPa·s | mass density ([3]; 283.15 K, x1 = 1): 1507.3 ± 0.5 kg/m3 | viscosity ([3]; 283.15 K, x1 = 1): 0.629 ± 0.008 mPa·s | mass density ([3]; 293.15 K, x1 = 0.0906): 861.7 ± 0.3 kg/m3 | viscosity ([3]; 293.15 K, x1 = 0.0906): 0.475 ± 0.007 mPa·s | mass density ([3]; 293.15 K, x1 = 0.1806): 918.7 ± 0.3 kg/m3 | viscosity ([3]; 293.15 K, x1 = 0.1806): 0.526 ± 0.007 mPa·s | mass density ([3]; 293.15 K, x1 = 0.272): 977.9 ± 0.3 kg/m3 | viscosity ([3]; 293.15 K, x1 = 0.272): 0.556 ± 0.008 mPa·s | mass density ([3]; 293.15 K, x1 = 0.3661): 1040.2 ± 0.3 kg/m3 | viscosity ([3]; 293.15 K, x1 = 0.3661): 0.594 ± 0.008 mPa·s | mass density ([3]; 293.15 K, x1 = 0.4551): 1100.2 ± 0.3 kg/m3 | viscosity ([3]; 293.15 K, x1 = 0.4551): 0.62 ± 0.008 mPa·s | mass density ([3]; 293.15 K, x1 = 0.549): 1165 ± 0.3 kg/m3 | viscosity ([3]; 293.15 K, x1 = 0.549): 0.633 ± 0.008 mPa·s | mass density ([3]; 293.15 K, x1 = 0.633): 1223.7 ± 0.4 kg/m3 | viscosity ([3]; 293.15 K, x1 = 0.633): 0.636 ± 0.008 mPa·s | mass density ([3]; 293.15 K, x1 = 0.7035): 1273.6 ± 0.4 kg/m3 | viscosity ([3]; 293.15 K, x1 = 0.7035): 0.631 ± 0.008 mPa·s | mass density ([3]; 293.15 K, x1 = 0.7973): 1340.7 ± 0.4 kg/m3 | viscosity ([3]; 293.15 K, x1 = 0.7973): 0.63 ± 0.008 mPa·s | mass density ([3]; 293.15 K, x1 = 0.9068): 1419.8 ± 0.5 kg/m3 | viscosity ([3]; 293.15 K, x1 = 0.9068): 0.61 ± 0.008 mPa·s | mass density ([3]; 293.15 K, x1 = 1): 1488.4 ± 0.5 kg/m3 | viscosity ([3]; 293.15 K, x1 = 1): 0.573 ± 0.008 mPa·s | mass density ([3]; 303.15 K, x1 = 0.0906): 850.7 ± 0.3 kg/m3 | viscosity ([3]; 303.15 K, x1 = 0.0906): 0.419 ± 0.006 mPa·s | mass density ([3]; 303.15 K, x1 = 0.1806): 907.1 ± 0.3 kg/m3 | viscosity ([3]; 303.15 K, x1 = 0.1806): 0.468 ± 0.007 mPa·s | mass density ([3]; 303.15 K, x1 = 0.272): 965.6 ± 0.3 kg/m3 | viscosity ([3]; 303.15 K, x1 = 0.272): 0.499 ± 0.007 mPa·s | mass density ([3]; 303.15 K, x1 = 0.3661): 1027.2 ± 0.3 kg/m3 | viscosity ([3]; 303.15 K, x1 = 0.3661): 0.53 ± 0.007 mPa·s | mass density ([3]; 303.15 K, x1 = 0.4551): 1086.4 ± 0.3 kg/m3 | viscosity ([3]; 303.15 K, x1 = 0.4551): 0.553 ± 0.008 mPa·s | mass density ([3]; 303.15 K, x1 = 0.549): 1150.5 ± 0.3 kg/m3 | viscosity ([3]; 303.15 K, x1 = 0.549): 0.565 ± 0.008 mPa·s | mass density ([3]; 303.15 K, x1 = 0.633): 1208.5 ± 0.3 kg/m3 | viscosity ([3]; 303.15 K, x1 = 0.633): 0.571 ± 0.008 mPa·s | mass density ([3]; 303.15 K, x1 = 0.7035): 1257.7 ± 0.4 kg/m3 | viscosity ([3]; 303.15 K, x1 = 0.7035): 0.566 ± 0.008 mPa·s | mass density ([3]; 303.15 K, x1 = 0.7973): 1323.9 ± 0.4 kg/m3 | viscosity ([3]; 303.15 K, x1 = 0.7973): 0.566 ± 0.008 mPa·s | mass density ([3]; 303.15 K, x1 = 0.9068): 1401.8 ± 0.5 kg/m3 | viscosity ([3]; 303.15 K, x1 = 0.9068): 0.546 ± 0.007 mPa·s | mass density ([3]; 303.15 K, x1 = 1): 1469.4 ± 0.5 kg/m3 | viscosity ([3]; 303.15 K, x1 = 1): 0.516 ± 0.007 mPa·s | mass density ([3]; 313.15 K, x1 = 0.0906): 839.3 ± 0.3 kg/m3 | viscosity ([3]; 313.15 K, x1 = 0.0906): 0.385 ± 0.006 mPa·s | mass density ([3]; 313.15 K, x1 = 0.1806): 895.1 ± 0.3 kg/m3 | viscosity ([3]; 313.15 K, x1 = 0.1806): 0.42 ± 0.006 mPa·s | mass density ([3]; 313.15 K, x1 = 0.272): 952.9 ± 0.3 kg/m3 | viscosity ([3]; 313.15 K, x1 = 0.272): 0.451 ± 0.006 mPa·s | mass density ([3]; 313.15 K, x1 = 0.3661): 1013.7 ± 0.3 kg/m3 | viscosity ([3]; 313.15 K, x1 = 0.3661): 0.477 ± 0.007 mPa·s | mass density ([3]; 313.15 K, x1 = 0.4551): 1072.3 ± 0.3 kg/m3 | viscosity ([3]; 313.15 K, x1 = 0.4551): 0.498 ± 0.007 mPa·s | mass density ([3]; 313.15 K, x1 = 0.549): 1135.5 ± 0.3 kg/m3 | viscosity ([3]; 313.15 K, x1 = 0.549): 0.51 ± 0.007 mPa·s | mass density ([3]; 313.15 K, x1 = 0.633): 1192.7 ± 0.3 kg/m3 | viscosity ([3]; 313.15 K, x1 = 0.633): 0.515 ± 0.007 mPa·s | mass density ([3]; 313.15 K, x1 = 0.7035): 1241.3 ± 0.4 kg/m3 | viscosity ([3]; 313.15 K, x1 = 0.7035): 0.513 ± 0.007 mPa·s | mass density ([3]; 313.15 K, x1 = 0.7973): 1306.6 ± 0.4 kg/m3 | viscosity ([3]; 313.15 K, x1 = 0.7973): 0.51 ± 0.007 mPa·s | mass density ([3]; 313.15 K, x1 = 0.9068): 1383.4 ± 0.4 kg/m3 | viscosity ([3]; 313.15 K, x1 = 0.9068): 0.491 ± 0.007 mPa·s | mass density ([3]; 313.15 K, x1 = 1): 1450 ± 0.5 kg/m3 | viscosity ([3]; 313.15 K, x1 = 1): 0.468 ± 0.007 mPa·s
